# Measurements from PubChem BioAssay AID1919 (The Scripps Research Institute Molecular Screening Center, 2009).
# Active and inactive are the calls of the source.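 Rule for the calls: active = IC50 against the VIM-2 bacterial beta-lactamase enzyme at or below a set limit; inactive = IC50 above that set limit.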
# Biological target: VIM-2 metallo-beta-lactamase (Pseudomonas aeruginosa) (UniProt Q932Y6)
# Assay: VIM-2 metallo-beta-lactamase inhibitor potency, dose response, biochemical, epi-absorbance readout, selective inhibitors (AID 1919)
# Conditions: purified VIM-2, nitrocefin hydrolysis, epi-absorbance fluorescence
row,SMILES,IC50
1,CCOC(=O)N=S(N)(=O)c1ccccc1 (configuration not stated),inactive
2,S=c1[nH]nc(C2CC2)n1Cc1ccco1,9.32 µM
3,Cc1ccc(-n2c(-c3nn(C)c(C)c3Cl)n[nH]c2=S)cc1,inactive
4,O=P(O)(O)c1ccccc1OCCCCCOc1ccccc1P(=O)(O)O,2.4 µM
5,CCCCn1c(-c2nn(C)cc2Cl)n[nH]c1=S,4.2 µM
6,O=c1c2ccccc2cnn1Cc1n[nH]c(=S)n1C1CC2CCC1C2 (configuration not stated),inactive
7,O=C(O)CC/C(=C\c1cc([N+](=O)[O-])ccc1Cl)c1nc2ccccc2s1,inactive
8,CCc1cc(=O)oc2c(C)c(OCC(=O)N3CCC[C@@H]3C(=O)O)ccc12,inactive
9,O=c1[nH]c2c(s1)C(c1cccnc1)C1C3CCC(C3)C1S2 (configuration not stated),0.0544 µM
10,O=C(O)Cn1cccc1C(=O)c1ccccc1,inactive
11,COc1cccc(-n2c(CNC(=O)OC(C)(C)C)n[nH]c2=S)c1,inactive
12,CC1CCCCC1n1c(-c2cccnc2)n[nH]c1=S (configuration not stated),inactive
13,S=c1[nH]nc(-c2ccccc2)n1CC1CCCO1 (configuration not stated),inactive
14,COc1ccccc1-n1c(-c2ccco2)n[nH]c1=S,inactive
15,O=C(CSc1nnc(NC(=O)c2cc(Br)ccc2Cl)s1)NCC1CCCO1 (configuration not stated),inactive
16,O=C(O)c1ccccc1C(=O)c1cccc2ccccc12,inactive
17,CCOC(=O)c1[nH]c(C(=O)O)c(CCC(=O)OC)c1C,inactive
18,O=C(O)C(NC(=O)c1ccccc1)=C(Cl)Cl,inactive
19,Cc1c(C)c2c(OCC(=O)N[C@@H](C)C(=O)O)cc3c(c2oc1=O)CCC(C)(C)O3,4.44 µM
20,CC(C)(C)CC(=O)Nc1nnc(SCC(=O)NCc2cccs2)s1,inactive
21,CC(C)(C)c1ccc(COc2ccsc2C(=O)O)cc1,inactive
22,O=C(CSc1nnc(NC(=O)c2ccccc2)s1)NCc1ccco1,> 59.6 µM (inactive)
23,CCCC(=O)Nc1nnc(SCC(=O)NCc2cccs2)s1,inactive
24,CCCCn1c(-c2nn(C)c(C)c2Cl)n[nH]c1=S,5.37 µM
25,CC(C)Cn1c(-c2ccco2)n[nH]c1=S,inactive
26,Cc1c(OCC(=O)N2CCC[C@@H]2C(=O)O)ccc2c3c(c(=O)oc12)CCC3,inactive

row,SMILES,IC50
1,COCC(C)NC(=O)c1cc2cccc([N+](=O)[O-])c2[nH]1 (configuration not stated),inactive
2,Cc1c(Cl)c(-c2n[nH]c(=S)n2-c2ccc(F)cc2)nn1C,inactive
3,COCC(=O)Nc1nnc(SCC(=O)NCc2cccs2)s1,9.67 µM
4,CCCn1c(C(C)C)n[nH]c1=S,inactive
5,Cc1ccc(S(=O)(=O)n2[nH]c(=O)cc2NC(=O)c2cccs2)cc1,0.453 µM
6,O=C(CSc1nnc(NC(=O)c2cccc(F)c2)s1)NCc1ccco1,> 59.6 µM (inactive)
7,Cc1n[nH]c(C)c1CCCCOc1ccc([N+](=O)[O-])cc1,inactive
8,S=c1[nH]nc(C2CC2)n1Cc1ccccc1,3.35 µM
9,O=C(CCN1C(=O)/C(=C/c2ccccc2F)SC1=S)NCCCn1ccnc1,6.45 µM
10,Cn1c(-c2sccc2OCc2ccccc2)n[nH]c1=S,5.45 µM
11,Cc1cc(OCC(=O)N2CCC[C@@H]2C(=O)O)c2c(C)c(C)c(=O)oc2c1,inactive
12,S=c1[nH]nc(-c2cccs2)n1Cc1ccccc1,4.09 µM
13,CC(C)(C)C(=O)Nc1nnc(SCC(=O)NCc2cccs2)s1,2.62 µM
14,Cc1cccc(C(=O)Nc2nnc(SCC(=O)NCc3ccco3)s2)c1,> 59.6 µM (inactive)
15,S=c1[nH]nc(-c2ccccc2)n1C1C=CCCC1 (configuration not stated),inactive
16,O=C(c1ccco1)N1N=C(c2ccc(Cl)cc2)CC1c1ccco1 (configuration not stated),7.31 µM
17,CC1CCCC(C)N1C(=O)CSc1nnc(NC(=O)c2cccs2)s1 (configuration not stated),inactive
18,S=c1[nH]nc(-c2ccco2)n1-c1cccc2ccccc12,inactive
19,CCCCn1c(-c2ccoc2C)n[nH]c1=S,inactive
20,C=C(C)Cn1c(-c2cccs2)n[nH]c1=S,5.07 µM
21,Cc1cc(=O)oc2c3c(cc(OCC(=O)N4CCC[C@H]4C(=O)O)c12)OC(C)(C)CC3,inactive
22,O=Cc1c(NCc2ccc(Cl)cc2)c2ccccc2[nH]c1=O,inactive
23,O=P(O)(O)c1ccccc1OCc1ccccc1,2.44 µM
24,O=C(O)c1ccccc1Sc1ncnc2sc3c(c12)CCC3,inactive
25,Cc1ccccc1C(=O)Nc1nnc(SCC(=O)NCc2ccco2)s1,3.01 µM
26,Cc1ccc(-c2n[nH]c(=S)n2-c2ccccc2)cc1,> 59.6 µM (inactive)
